# Data reported in US20080096894A1, “Anti-Bacterial Compounds” (ASTON UNIVERSITY, priority 2005, published 2008).
# Like-named read-outs stand apart in the source and are kept apart here.
# Legend:
# Test in all cases: MIC, agar dilution, multipoint inoculator
# E. faecium = assay type: cell-based, Enterococcus faecium; conditions: upper value of MIC reading
# Procedure: (§1) This activity was measured using a multipoint inoculator method as follows. The MIC for each compound was measured using an agar dilution method (Onda, H., et al., Int. J. Antimicrob. Agents. 18, 263 (2001)) (Mueller Hinton agar) by means of a multipoint inoculator delivering 10^4 colony forming units per spot.
# MRSA = assay type: cell-based, methicillin-resistant Staphylococcus aureus
# Procedure: as §1
# ‘Staph’ refers to the reference strain of S. aureus (NCTC 6571). A tick in the MRSA column refers to a positive zone against MRSA strain 96-7474, and the MIC range (in μg/ml) which follows is that found against a panel of ten MRSA strains. Where MIC values are given for MRSA, these are stated as a range of values, as testing was carried out on a panel of clinical isolates.
# S. epidemisis = assay type: cell-based, Staphylococcus epidermidis; conditions: upper value of MIC reading
# Procedure: as §1
# S. aureus = assay type: cell-based, Staphylococcus aureus; conditions: upper value of MIC reading
# Procedure: as §1
# B. bronchiseptica = assay type: cell-based; conditions: B. bronchiseptica NCTC 8344; upper value of MIC reading
# Procedure: as §1
# E. coli = assay type: cell-based, Escherichia coli; conditions: Escherichia coli, 18 h, upper value of MIC reading
# Procedure: as §1
# P. auriginosa = assay type: cell-based, Pseudomonas aeruginosa; conditions: P. auriginosa NCTC 6749, upper value of MIC reading
# Procedure: as §1
# S. marcesens = assay type: cell-based, Serratia marcescens; conditions: S. marcesens 4444, upper value of MIC reading
# Procedure: as §1
# S. maltophilia = assay type: cell-based; conditions: S. maltophilia NCTC 10257, upper value of MIC reading
# Procedure: as §1
# S. haemolyticus = assay type: cell-based; conditions: S. haemolyticus Isolate 1, upper value of MIC reading
# Procedure: as §1
# E. faecalis = assay type: cell-based; conditions: upper value of MIC reading
# Procedure: as §1
# K. pneumoniae = assay type: cell-based, Klebsiella pneumoniae; conditions: K. pneumoniae 327; upper value of MIC reading
# Procedure: as §1
# S. aboni = assay type: cell-based; conditions: S. aboni NCTC 6017; upper value of MIC reading
# Procedure: as §1
# [1] = MRSA Isolate 5, upper value of MIC reading, in µg/mL
# [2] = Enterococcus faecium, NCTC7171, 18 h, E. faecium NCTC 7171, read-out: MIC
# [3] = Staphylococcus aureus, 18 h, MRSA Isolate 1, upper value of MIC reading, read-out: MIC
# [4] = Staphylococcus aureus, 18 h, MRSA Isolate 2, upper value of MIC reading, read-out: MIC
# [5] = Staphylococcus aureus, 18 h, MRSA Isolate 3, upper value of MIC reading, read-out: MIC
# [6] = Staphylococcus aureus, 18 h, MRSA Isolate 4, upper value of MIC reading, read-out: MIC
# [7] = Staphylococcus aureus, 18 h, MRSA Isolate 5, upper value of MIC reading, read-out: MIC
# [8] = Staphylococcus aureus, 18 h, MRSA Isolate 6, upper value of MIC reading, read-out: MIC
# [9] = Staphylococcus aureus, 18 h, MRSA Isolate 7, upper value of MIC reading, read-out: MIC
# [10] = Staphylococcus aureus, 18 h, MRSA Isolate 8, upper value of MIC reading, read-out: MIC
# [11] = Staphylococcus aureus, 18 h, MRSA Isolate 9, upper value of MIC reading, read-out: MIC
# [12] = Staphylococcus aureus, 18 h, MRSA Isolate 10, upper value of MIC reading, read-out: MIC
# [13] = Staphylococcus aureus, MRSA, 18 h, panel of ten MRSA strains (clinical isolates), read-out: MRSA MIC range
# [14] = Staphylococcus epidermidis, 18 h, S. epidemisis Isolate 1, read-out: MIC
# [15] = Staphylococcus epidermidis, NCTC11047, 18 h, S. epidemisis NCTC 11047, read-out: MIC
# [16] = Staphylococcus aureus, 18 h, S. aureus Cowan 1, read-out: MIC
# [17] = Staphylococcus aureus, NCTC6571, 18 h, S. aureus NCTC 6571, read-out: MIC
# [18] = Staphylococcus aureus, NCTC10788, 18 h, S. aureus NCTC 10788, read-out: MIC
# [19] = Staphylococcus haemolyticus, 18 h, read-out: MIC
# [20] = Enterococcus faecalis, 18 h, E. faecalis Isolate 1, read-out: MIC
# [21] = Enterococcus faecalis, 18 h, E. faecalis Isolate 2, read-out: MIC
# [22] = Enterococcus faecalis, 18 h, E. faecalis Isolate 4, read-out: MIC
# [23] = Enterococcus faecalis, 18 h, E. faecalis Isolate 5, read-out: MIC
# [24] = MRSA Isolate 1, upper value of MIC reading, in µg/mL
# [25] = MRSA Isolate 2, upper value of MIC reading, in µg/mL
# [26] = MRSA Isolate 3, upper value of MIC reading, in µg/mL
# [27] = MRSA Isolate 4, upper value of MIC reading, in µg/mL
# [28] = MRSA Isolate 10, upper value of MIC reading, in µg/mL
# [29] = panel of ten MRSA strains (clinical isolates)
smiles,measurement,setting,value
NC(=NN=Cc1ccc(O)c(O)c1O)c1ccccn1 [Compound 2PYcb],MIC,E. faecium; E. faecium NCTC 7171,256 µg/mL
same,MIC,MRSA; [1],256
same,MIC,S. epidemisis; S. epidemisis Isolate 1,256 µg/mL
same,MIC,S. aureus; S. aureus Cowan 1,256 µg/mL
same,MIC,B. bronchiseptica,256 µg/mL
"CCC(C)(C)c1ccc(/C=N/N=C(\N)c2cccnc2)cc1 [Compound 3PYaf, N^1-[4-(1,1-dimethylpropyl)benzylidene]-pyridine-3-carboxamidrazone]",MIC,"E. faecium; Enterococcus faecium, 18 h, E. faecium ACTCC 10541, read-out: MIC",64 µg/mL
same,MIC,E. faecium; [2],64 µg/mL
same,MIC,E. coli; E. coli W3110R+,64 µg/mL
same,MIC,E. coli; E. coli W3110R−,64 µg/mL
same,MIC,"P. auriginosa; Pseudomonas aeruginosa, NCTC6749, 18 h, read-out: MIC",64 µg/mL
same,MIC,"S. marcesens; Serratia marcescens, 18 h, read-out: MIC",256 µg/mL
same,MIC,MRSA; [3],64 µg/mL
same,MIC,MRSA; [4],64 µg/mL
same,MIC,MRSA; [5],64 µg/mL
same,MIC,MRSA; [6],64 µg/mL
same,MIC,MRSA; [7],64 µg/mL
same,MIC,MRSA; [8],64 µg/mL
same,MIC,MRSA; [9],64 µg/mL
same,MIC,MRSA; [10],64 µg/mL
same,MIC,MRSA; [11],64 µg/mL
same,MIC,MRSA; [12],64 µg/mL
same,MIC,MRSA; [13],32 to 64 µg/mL
same,MIC,S. epidemisis; [14],128 µg/mL
same,MIC,S. epidemisis; [15],32 µg/mL
same,MIC,S. aureus; [16],64 µg/mL
same,MIC,S. aureus; [17],64 µg/mL
same,MIC,S. aureus; [18],64 µg/mL
same,MIC,"S. maltophilia; Stenotrophomonas maltophilia, NCTC10257, 18 h, read-out: MIC",64 µg/mL
same,MIC,S. haemolyticus; [19],64 µg/mL
same,MIC,"E. faecalis; Enterococcus faecalis, 18 h, E. faecalis EBH1, read-out: MIC",128 µg/mL
same,MIC,E. faecalis; [20],64 µg/mL
same,MIC,E. faecalis; [21],64 µg/mL
same,MIC,E. faecalis; [22],128 µg/mL
same,MIC,E. faecalis; [23],128 µg/mL
same,MIC,"E. faecalis; Enterococcus faecalis, NCTC5957, 18 h, E. faecalis NCTC 5957, read-out: MIC",64 µg/mL
CCOc1ccccc1C=NN=C(N)c1cccnc1 [Compound 3PYay],MIC,P. auriginosa,128 µg/mL
same,MIC,S. marcesens,256 µg/mL
same,MIC,MRSA; [24],256
same,MIC,MRSA; [25],128
same,MIC,MRSA; [26],128
same,MIC,MRSA; [27],128
same,MIC,MRSA; [1],128
same,MIC,MRSA; [28],256
same,MRSA MIC range,MRSA; [29],> 256 µg/mL
same,MIC,K. pneumoniae,256 µg/mL
same,MIC,S. epidemisis; S. epidemisis NCTC 11047,128 µg/mL
same,MIC,S. aureus; S. aureus NCTC 6571,> 256 µg/mL
same,MIC,S. maltophilia,256 µg/mL
same,MIC,S. haemolyticus,256 µg/mL
same,MIC,E. faecalis; E. faecalis EBH1,128 µg/mL
same,MIC,E. faecalis; E. faecalis Isolate 1,128 µg/mL
same,MIC,E. faecalis; E. faecalis Isolate 2,128 µg/mL
same,MIC,E. faecalis; E. faecalis NCTC 5957,128 µg/mL
N/C(=N\N=C\c1c2ccccc2cc2ccccc12)c1ccncc1 [Compound 4PYam],MIC,E. faecium; [2],256 µg/mL
same,MIC,MRSA; [3],32 µg/mL
same,MIC,MRSA; [4],64 µg/mL
same,MIC,MRSA; [5],64 µg/mL
same,MIC,MRSA; [6],32 µg/mL
same,MIC,MRSA; [7],32 µg/mL
same,MIC,MRSA; [8],32 µg/mL
same,MIC,MRSA; [9],64 µg/mL
same,MIC,MRSA; [10],64 µg/mL
same,MIC,MRSA; [11],32 µg/mL
same,MIC,MRSA; [12],32 µg/mL
same,MIC,MRSA; [13],16 to 64 µg/mL
same,MIC,S. epidemisis; [14],128 µg/mL
same,MIC,S. epidemisis; [15],256 µg/mL
same,MIC,S. aureus; [16],32 µg/mL
same,MIC,S. aureus; [17],32 µg/mL
same,MIC,S. aureus; [18],64 µg/mL
same,MIC,S. haemolyticus; [19],256 µg/mL
same,MIC,S. aboni,32 µg/mL
same,MIC,E. faecalis; [20],256 µg/mL
same,MIC,E. faecalis; [21],256 µg/mL
same,MIC,E. faecalis; [22],256 µg/mL
same,MIC,E. faecalis; [23],256 µg/mL
NC(=NN=Cc1c(O)ccc2ccccc12)c1ccncc1 [Compound 4PYdb],MIC,MRSA; [24],128
same,MIC,MRSA; [26],256
same,MIC,MRSA; [27],256
same,MIC,S. epidemisis; S. epidemisis Isolate 1,128 µg/mL
same,MIC,S. epidemisis; S. epidemisis NCTC 11047,128 µg/mL
same,MIC,S. aureus; S. aureus Cowan 1,128 µg/mL
same,MIC,S. aureus; S. aureus NCTC 6571,> 256 µg/mL
same,MIC,S. maltophilia,128 µg/mL
same,MIC,S. haemolyticus,128 µg/mL
same,MIC,E. faecalis; E. faecalis Isolate 2,256 µg/mL
same,MIC,E. faecalis; E. faecalis Isolate 3,256 µg/mL
NC(=NN=Cc1cc(O)c(O)cc1O)c1ccc2ccccc2n1 [QNcc],MIC,MRSA; [24],256
same,MIC,S. aureus; S. aureus Cowan 1,256 µg/mL
same,MIC,S. aureus; S. aureus NCTC 6571,256 µg/mL
same,MIC,S. aureus; S. aureus NCTC 10788,256 µg/mL
same,MIC,E. faecalis; E. faecalis Isolate 2,256 µg/mL
same,MIC,E. faecalis; E. faecalis Isolate 3,256 µg/mL
same,MIC,B. bronchiseptica,256 µg/mL
CN(C)CCCOc1ccc(C=NN=C(N)c2ccc3ccccc3n2)cc1 [QNds],MIC,E. faecium; E. faecium ACTCC 10541,128 µg/mL
same,MIC,E. faecium; E. faecium NCTC 7171,64 µg/mL
same,MIC,MRSA; [24],64
same,MIC,MRSA; [25],64
same,MIC,MRSA; [26],64
same,MIC,MRSA; [27],64
same,MIC,MRSA; [1],64
same,MIC,"MRSA; MRSA Isolate 6, upper value of MIC reading, in µg/mL",64
same,MIC,"MRSA; MRSA Isolate 7, upper value of MIC reading, in µg/mL",64
same,MIC,"MRSA; MRSA Isolate 8, upper value of MIC reading, in µg/mL",64
same,MIC,"MRSA; MRSA Isolate 9, upper value of MIC reading, in µg/mL",64
same,MIC,MRSA; [28],64
same,MRSA MIC range,MRSA; [29],32 to 128 µg/mL
same,MIC,S. epidemisis; S. epidemisis Isolate 1,256 µg/mL
same,MIC,S. epidemisis; S. epidemisis NCTC 11047,256 µg/mL
same,MIC,S. aureus; S. aureus Cowan 1,128 µg/mL
same,MIC,S. aureus; S. aureus NCTC 6571,128 µg/mL
same,MIC,S. aureus; S. aureus NCTC 10788,128 µg/mL
same,MIC,S. maltophilia,256 µg/mL
same,MIC,S. haemolyticus,256 µg/mL
same,MIC,E. faecalis; E. faecalis EBH1,128 µg/mL
same,MIC,E. faecalis; E. faecalis Isolate 1,128 µg/mL
same,MIC,E. faecalis; E. faecalis Isolate 2,128 µg/mL
same,MIC,E. faecalis; E. faecalis Isolate 3,128 µg/mL
same,MIC,E. faecalis; E. faecalis Isolate 4,128 µg/mL
same,MIC,E. faecalis; E. faecalis Isolate 5,64 µg/mL
same,MIC,E. faecalis; E. faecalis NCTC 5957,64 µg/mL
